The text below walks through data of patent publication US5686061A, “Particulate contrast media derived from non-ionic water soluble contrast agents for CT enhancement of hepatic tumors” (priority 1994, dated 1997).

For series [1] the following is noted: background; cited from earlier work.
Series [2] in a line: Solubility of IX-C. Type of series: physicochemical.
A short description of series [3]: Hydrolytic degradation of IX-C particles (HCl, NaOH, saline). Format: physicochemical. The following applies: supernatants of all samples (HCl, NaOH, saline, plasma). The protocol:
(§1) Degradation of IX-C particles was investigated by incubating a suspension of the particles (25 mg) in the following solutions (each 1 ml) at 37° C.:0.1 N HCl, 0.1 N NaOH, saline, and rabbit plasma. The disappearance of the particles in the suspensions was noted by visual observations and the integrity of the particles was examined by scanning electron microscopy. To identify the degradation products, the residual solutions were subjected to analysis by HPLC. The HPLC system consisted of a RP-18 column, a Perkin-Elmer isocratic LC pump (Model 250), a PE Nelson 900 series interface, a Spectra-Physics UV/Vis detector (Model SP 8540) and a data station. The eluant (10% methanol in double distilled water) was run at 0.8 ml/min. with UV detection at 254 nm. Samples in HCl or NaOH were neutralized before injection. Plasma samples were first treated with PCA (0.4 N) and centrifuged to remove precipitate proteins. The supernatants were then injected for HPLC analysis.

Series [4] can be described thus: Enzymatic degradation of IX-C particles in rabbit plasma. Format: in vitro ADME. The following applies: plasma samples. The method, then: as §1
Series [5] is described as follows: in vivo. The following applies: mouse, in vivo, iv. The method, then:
(§2) Swiss Webster mice (Harlan Sprague Dawley Inc., Indianapolis, Ind.) weighing between 25 and 30 g were given doses ranging from 0.2 to 1 ml/mouse. Five animals were used for each dose. No anesthesia was used for injection. Following the injection, animals were monitored daily for 7 days. The percentage survival vs. dose curve was constructed to estimate LD50.

The test system of series [6] is Swiss Webster mice. The experiment in a line: in vivo. The following applies: male and female mice. The protocol: as §2
The test system of series [7] is liver. Briefly: Computed tomography of liver in normal rabbits. Type of series: in vivo, New Zealand white rabbits. The following applies: predicted from CT imaging data. The method, then: New Zealand white rabbits (male, 3.0 to 3.5 kg) were anesthetized by an intramuscular injection of a solution containing xylazine (8.6 mg/ml), ketamine (42.9 mg/ml), and acepromazine (1.4 mg/ml) at a dose of 0.4 ml/kg for a long-lasting effect. Intravenous catheters (22-gauge) were placed in a marginal ear vein for the introduction of particle suspension. Rabbits were positioned supine in a GE model 9800 Quick scanner (Milwaukee, Wis.). The particulate contrast agent of proper volume (8% I, w/v in saline) was injected through the catheterized ear vein over a period of 10 to 15 minutes.
CT imaging of radiopaque particles (80 mg I/ml) was carried out at doses of 100, 200, and 270 mg I/kg body weight respectively. Three rabbits were used for each dose level. CT imaging was done with a scan speed of 1.0 seconds, 120 kV, 280 mAs, and a 25-cm field of view. Sequential, contiguous 3-mm-thick slices through the abdomen and 5-mm-thick-slices through the pelvis were obtained before contrast injection, immediately after injection and at various times (15 and 30 minutes, 1, 2, and 6 hours, and 1, 2, and 7 days after injection). The rabbits were killed with an overdose of pentobarbital sodium (50 mg/kg) administered via the catheterized ear vein.
Densitometric analysis of the liver, kidney, aorta, and bladder were performed. […]

For series [8], the system named is endothelial cells. The following applies: background; cited from earlier work.

“Also recorded” adds a separate entry of the source. Read-outs that look alike come from different tables or passages of the source.

Turning to `CC(=O)N(CC(O)CO)c1c(I)c(C(=O)NCCO)c(I)c(C(=O)NCC(O)CO)c1I` (centres unmarked) [IOXILAN], the overall biological tolerance result in series [1] is “high overall biological tolerance”.
As for `CC(=O)N(CC1COC(=O)O1)c1c(I)c(C(=O)NCC2COC(=O)O2)c(I)c(C(=O)N2CCOC2=O)c1I` (centres unmarked) [IX-C, cyclic carbonate of IOXILAN], the lipid solubility entry in series [2] was “lipid soluble”. The solubility in acetone entry in series [2] (acetone) was “soluble in acetone”. For the same compound, the “solubility in methylene chloride” value in series [2] (methylene chloride) is listed as “limited solubility in methylene chloride; also recorded: slightly soluble in methylene chloride”. For the same compound, the solubility in water result in series [2] (water) was “insoluble in water”. Moreover, the “degradation products (HPLC)” value in series [3] is “IOXILAN and carbon dioxide”. For the same compound, the “degradation product confirmed by FAB mass spectroscopy” value in series [4] is “presence of IOXILAN was confirmed”. The LD50 at 168 h stood at 1200 mg/kg in series [5] (female Swiss Webster mice, tail vein, 7 days, read-out: LD50, females, as iodine); 2600 mg/kg in series [5] (female Swiss Webster mice, corresponding IX-C dose, read-out: LD50, females, as IX-C); 1400 mg/kg in series [5] (male Swiss Webster mice, tail vein, 7 days, read-out: LD50, males, as iodine); 3100 mg/kg in series [5] (male Swiss Webster mice, corresponding IX-C dose, read-out: LD50, males, as IX-C). In addition, the “LD50 compared with those reported for other particulate CM” value in series [6] was “slightly higher than those reported for other particulate CM”. Further, in series [7], the predicted diagnostic dose is recorded as 100 mg I/kg body weight.
Consider `O=C(CCCCC(=O)Nc1c(I)cc(I)c(C(=O)O)c1I)Nc1c(I)cc(I)c(C(=O)O)c1I` [Iodipamide, iodipamide], for which, in series [8], the “toxicity to endothelial cells” value is reported as “toxic to endothelial cells”.

As a reminder, the LD50 is the dose at which mortality reaches 50%.
